Three compounds from publication PMC12196213, “New Insights into the Anticancer Effects and Toxicogenomic Safety of Two β-Lapachone Derivatives” (Pharmaceuticals, 2025) can be followed below.

As a reminder, the pIC50 is −log10 of the IC50, conventionally taken in molar units. A high value points to a small IC50.

For assay [1], the system named is L929 (murine fibroblasts). The experiment in a line: MTT cytotoxicity assay, L929. The assay is classed as cell-based. Conditions: Mus musculus, L929, 72 h. Here is the method:
(§1) To assess the cytotoxicity of the compounds, the MTT [3-(4,5-dimethylthiazol-2-yl)-2,5-diphenyltetrazolium bromide] assay was employed. The cells (2 × 10^5/mL) were incubated with the substances at concentrations ranging from 0.78 to 25 µg/mL. β-lap was used as a positive control. After 24, 48, or 72 h of incubation, MTT was added at a concentration of 5 mg/mL. Cell viability in different treatments was compared to the negative control using the following formula: Cell viability%=mean absorbance of treated samples/mean absorbance of negative control×100 The IC50 (the concentration that inhibits 50% of cell growth compared to the negative control) was calculated using nonlinear regression in GraphPad Prism 8.0 for Windows (GraphPad Demo Software, San Diego, CA, USA). Experiments were performed in triplicate and in two independent experiments. The protocol is also described in other previous publications.
On the technique in general: Tetrazolium dyes change colour on reduction, which living cells bring about.

In another assay the target is T1, HASPIN (Homo sapiens, UniProt Q8TF76).
T1 sequence (Q8TF76 470-798 limits assumed): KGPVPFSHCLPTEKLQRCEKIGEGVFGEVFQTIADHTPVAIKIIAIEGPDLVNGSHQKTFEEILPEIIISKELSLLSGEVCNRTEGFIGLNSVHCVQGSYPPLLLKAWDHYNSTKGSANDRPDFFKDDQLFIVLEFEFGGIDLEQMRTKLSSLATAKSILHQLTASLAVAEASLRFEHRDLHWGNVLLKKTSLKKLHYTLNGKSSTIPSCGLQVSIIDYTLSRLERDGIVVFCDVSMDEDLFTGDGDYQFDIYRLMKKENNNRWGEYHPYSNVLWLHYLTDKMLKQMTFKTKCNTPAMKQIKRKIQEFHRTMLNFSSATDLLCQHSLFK
Put plainly: ADP-Glo kinase assay. The assay is classed as biochemical. Conditions: 10 µM ATP, read-out: % of residual activity; for remaining activity at 1 µM: 1 µM compound; for remaining activity at 10 µM: 10 µM compound. Here is the method:
Kinase enzymatic activities of CDK5/p25, CDK9/CyclinT, HASPIN, PIM1, GSK3β, CK1ε, ABL1, and JAK3 were assayed using the luminescent ADP detection assay described in Zegzouti et al. (ADP-GloTM assay kit provided by Promega, Madison, WI, USA). Briefly, the reactions were carried out in appropriate kinase buffer, with either protein or peptide as substrate in the presence of 10 µM ATP. Assay conditions used for each kinase tested here are described in Ibrahim et al.. The Envision (PerkinElmer, Waltham, MA, USA) microplate luminometer was used to measure the transmitted signal expressed in Relative Light Unit (RLU). In order to determine the half maximal inhibitory concentration (IC50), the assays were performed in duplicate in the absence or presence of increasing doses of the tested compounds. Kinase activities are expressed in % of maximal activity, i.e., measured in the absence of inhibitor but with a similar dose of DMSO (solvent of the tested compounds).

Assay [2] relates to HepG2 (human hepatocellular carcinoma). Put plainly: MTT cytotoxicity assay, HepG2. The assay is classed as cell-based. Conditions: for pIC50: Homo sapiens, HepG2, 72 h, MTT; for selectivity index (SI): IC50 L929 / IC50 HepG2, 72 h. As to the method:
as §1, with “publications. The IC50 of normal and cancer cells was used to calculate the SI of compounds BV3 and BV5. The SI indicated the selectivity of the compounds among the normal cell line (L-929) and a cancer cell line (HCT-116, MDA-MB-231, HepG2, or HeLa). SI is a crucial parameter for therapeutic applications in upcoming clinical trials. Therefore, the following formula was used to calculate SI: SI=IC50(normal cell line)/IC50(cancer cell line)” for “publications.”

In assay [3] the test system is HCT-116 (human colon carcinoma). The experiment in a line: MTT cytotoxicity assay, HCT-116. Conditions: for pIC50: Homo sapiens, HCT-116, 72 h, MTT; for selectivity index (SI): IC50 L929 / IC50 HCT-116, 72 h. The assay is classed as cell-based. As to the method: as §1, with “publications. The IC50 of normal and cancer cells was used to calculate the SI of compounds BV3 and BV5. The SI indicated the selectivity of the compounds among the normal cell line (L-929) and a cancer cell line (HCT-116, MDA-MB-231, HepG2, or HeLa). SI is a crucial parameter for therapeutic applications in upcoming clinical trials. Therefore, the following formula was used to calculate SI: SI=IC50(normal cell line)/IC50(cancer cell line)” for “publications.”

Assay [4] deals with cancer cells (HeLa, HCT-116, HepG2, MDA-MB-231). The experiment in a line: MTT cytotoxicity assay, cancer cell panel (range over lines). Type of assay: cell-based. Conditions: Homo sapiens, 72 h. As to the method: as §1
Assay [5] has as its system HeLa (human cervical adenocarcinoma). The experiment in a line: MTT cytotoxicity assay, HeLa. Type of assay: cell-based. Conditions: for pIC50: Homo sapiens, HeLa, MTT; for selectivity index (SI): IC50 L929 / IC50 HeLa. Here is the method:
as §1, with “publications. The IC50 of normal and cancer cells was used to calculate the SI of compounds BV3 and BV5. The SI indicated the selectivity of the compounds among the normal cell line (L-929) and a cancer cell line (HCT-116, MDA-MB-231, HepG2, or HeLa). SI is a crucial parameter for therapeutic applications in upcoming clinical trials. Therefore, the following formula was used to calculate SI: SI=IC50(normal cell line)/IC50(cancer cell line)” for “publications.”

The subject of a further assay is HeLa cells. Put plainly: Annexin V-FITC / propidium iodide flow cytometry (apoptosis or necrosis). Type of assay: cell-based, human. Conditions: 48 h; for necrosis compared to negative control: BV3 at the IC50 concentration; for cell viability compared to negative control: IC50 or 2 × IC50. Here is the method:
The analysis was performed using flow cytometry with the Annexin V Apoptosis Detection Kit (eBioscience™, USA) following the manufacturer’s instructions. Initially, HeLa cells were incubated at a concentration of 4 × 10^5 cells/mL and treated with the compounds at their IC50 or 2 × IC50 values obtained at 48 h. β-lap was used as a positive control, and the culture medium as the negative control. After 48 h of treatment, the cells were trypsinized and centrifuged at 1200× g for 5 min. Subsequently, the cells were washed with PBS and centrifuged again. The cells were then resuspended in buffer and incubated with 5 µL of Annexin V-FITC for 10 min. Afterward, the cells were washed with the buffer, centrifuged, resuspended in the buffer, and stained with 10 µL of propidium iodide. The cells were acquired using the Guava EasyCyteHT cytometer (Merck-Millipore, Burlington, MA, USA) with Guava—Soft™ software version 2.7. A total of 5000 events were counted per treatment.

pIC50: −log10 of the molar value. Where “and” joins values, the source holds several entries; their conditions need not be identical. Identical values can stand only once.

As for `CC1(C)CCC2=C(O1)c1ccccc1/C(=N/NC(=S)Nc1ccc([N+](=O)[O-])cc1)C2=O` [BV3, 2-(2,2-dimethyl-5-oxo-3,4-dihydro-2H-benzo[h]chromen-6(5H)-ylidene)-N-(4nitrophen-yl)thio-carbohydrazide], the pIC50 in assay [1] is 4.36; in assay [2], 4.90; in assay [3], 4.69; in assay [4] it was 4.69 to 5.55; in assay [5] (24 h), below 4.24; in assay [5] (48 h) it was 4.63. Also, the pIC50 in assay [5] (72 h) was 5.55. The remaining activity at 1 µM on HASPIN was at least 100%. Besides, the remaining activity at 10 µM at HASPIN is at least 100%. In addition, the “selectivity index (SI)” value in assay [2] was found to be 3.47; in assay [3], 2.13; in assay [5] (72 h) it was 15.6. Besides, the “necrosis compared to negative control” value with HeLa cells is “increases”. Further, in the assay with HeLa cells, the “cell viability compared to negative control” value is on record as “significantly decreased cell viability”.

Turning to `Cc1ccc(NC(=S)N/N=C2\C(=O)C3=C(OC(C)(C)CC3)c3ccccc32)cc1` [BV5, 2-(2,2-dimethyl-5-oxo-3,4-dihydro-2H-benzo[h]chromen-6(5H)-ylidene)-N-(p-tolyl)-thiocarbohydrazide], the pIC50 in assay [1] was 4.88; in assay [2], 4.75; in assay [3] it was 4.43; in assay [4], 4.43 to 4.81; in assay [5] (24 h) it was below 4.21; in assay [5] (48 h), 4.61. The compound further had a pIC50 in assay [5] (72 h) of 4.75. The remaining activity at 1 µM at HASPIN was at least 100%. For the same compound, the remaining activity at 10 µM on HASPIN was at least 100%. Moreover, in the assay with HeLa cells, the “cell viability compared to negative control” value is “significantly decreased cell viability”.

With `CC1(C)CCC2=C(O1)c1ccccc1C(=O)C2=O` [β-lap, β-Lapachone], the negative-log IC50 (pIC50) in assay [1] was 5.34; in assay [2] it was 6.92; in assay [3], 6.85; in assay [4] it was 5.47 to 6.92; in assay [5] (24 h), 4.97; in assay [5] (48 h), 5.05. The compound also gave a negative-log IC50 (pIC50) in assay [5] (72 h) of 5.62. Besides, on HASPIN, the remaining activity at 1 µM was at least 100%. In addition, at HASPIN, the remaining activity at 10 µM came out at 91%. Further, the “selectivity index (SI)” value in assay [2] was 37.8; in assay [3], 32.4; in assay [5] (72 h) it was 1.89 and 1.9. The “early apoptosis compared to negative control” value with HeLa cells is “significantly increased”. For the same compound, the “necrosis compared to negative control” value in the assay on HeLa cells was “increases”. In addition, in the assay with HeLa cells, the “cell viability compared to negative control” value is “reduced the number of viable cells”.
